Broadly, the inhibition is the drop in the measured response relative to a control, in per cent. Read a high inhibition as strong suppression. In general, IC50 refers to the concentration needed to halve the response being measured. A lower IC50 goes with greater potency. A word on the Ki: it is a measure of affinity in units of concentration, obtained from inhibition or displacement. High values mean weaker binding, low ones tighter binding.

This passage reports inhibition, IC50 and Ki results from ChEMBL document CHEMBL2010645, “N-Caffeoyl serotonin as selective COX-2 inhibitor” (Bioorg Med Chem Lett, 2012).

Assay [1] concerns the target T1, Prostaglandin G/H synthase 1 (Homo sapiens, UniProt P23219). The assay can be described thus: Inhibition of COX1 at 400 uM after 5 mins by spectrophotometric analysis.
For assay [2], the target named is T2, Prostaglandin G/H synthase 2 (Homo sapiens) (UniProt P35354).
T2 sequence (whole entry): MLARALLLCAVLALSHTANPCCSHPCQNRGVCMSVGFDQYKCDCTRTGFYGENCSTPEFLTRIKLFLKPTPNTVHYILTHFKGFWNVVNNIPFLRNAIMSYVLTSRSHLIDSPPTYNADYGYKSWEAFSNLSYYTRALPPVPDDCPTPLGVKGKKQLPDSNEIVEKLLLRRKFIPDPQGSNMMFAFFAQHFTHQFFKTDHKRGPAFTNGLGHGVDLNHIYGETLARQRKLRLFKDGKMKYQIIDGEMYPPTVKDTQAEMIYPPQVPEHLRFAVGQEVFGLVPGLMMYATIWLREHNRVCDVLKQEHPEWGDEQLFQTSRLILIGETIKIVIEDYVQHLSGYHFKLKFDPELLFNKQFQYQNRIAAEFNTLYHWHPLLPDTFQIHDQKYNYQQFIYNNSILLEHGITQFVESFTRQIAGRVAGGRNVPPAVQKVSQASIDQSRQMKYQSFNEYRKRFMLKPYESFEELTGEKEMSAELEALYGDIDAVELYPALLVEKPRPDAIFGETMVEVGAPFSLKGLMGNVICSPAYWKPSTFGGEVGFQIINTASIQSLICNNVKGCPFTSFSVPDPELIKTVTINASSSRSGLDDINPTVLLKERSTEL
The experiment in a line: Inhibition of COX2 at 400 uM after 5 mins by spectrophotometric analysis.

Assay [3] deals with T1, Prostaglandin G/H synthase 1. The experiment in a line: Inhibition of COX1 after 5 mins by spectrophotometric analysis.
For assay [4], the target named is T3, Prostaglandin G/H synthase 2 (Homo sapiens, UniProt P35354).
T3 sequence (P35354 whole entry): T2 sequence (whole entry)
The assay can be described thus: Inhibition of COX2 after 5 mins by spectrophotometric analysis.

Assay [5] concerns the target T3, Prostaglandin G/H synthase 2. The assay can be described thus: Uncompetitive inhibition of COX2 by Lineweaver-Burk plot analysis.

Molecules are shown by their SMILES.

T1 sequence (P23219 whole entry): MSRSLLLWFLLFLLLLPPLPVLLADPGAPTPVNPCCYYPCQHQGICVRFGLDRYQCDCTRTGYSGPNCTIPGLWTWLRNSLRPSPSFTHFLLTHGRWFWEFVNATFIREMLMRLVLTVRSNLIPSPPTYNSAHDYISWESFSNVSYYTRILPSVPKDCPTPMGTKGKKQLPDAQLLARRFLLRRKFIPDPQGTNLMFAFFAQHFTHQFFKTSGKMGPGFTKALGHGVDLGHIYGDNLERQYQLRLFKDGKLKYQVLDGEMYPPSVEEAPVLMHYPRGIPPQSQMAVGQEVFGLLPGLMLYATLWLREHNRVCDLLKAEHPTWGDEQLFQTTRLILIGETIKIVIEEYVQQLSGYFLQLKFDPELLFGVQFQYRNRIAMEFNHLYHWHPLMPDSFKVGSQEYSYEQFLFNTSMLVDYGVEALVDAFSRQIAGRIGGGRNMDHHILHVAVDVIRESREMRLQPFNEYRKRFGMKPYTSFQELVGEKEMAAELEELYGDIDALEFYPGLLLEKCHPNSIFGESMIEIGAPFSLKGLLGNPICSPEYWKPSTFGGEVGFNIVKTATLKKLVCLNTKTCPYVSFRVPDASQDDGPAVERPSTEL

Take `O=C(/C=C/c1ccc(O)c(O)c1)NCCc1c[nH]c2ccc(O)cc12` [N-CAFFEOYLSEROTONIN]: the results for the inhibition in assay [1] and in assay [2] were 40.6% and 70.5%, respectively. Further, the 50% inhibitory concentration (IC50) is above 400 µM in assay [3] and 42.5 µM in assay [4]. In assay [5], this compound yielded a Ki of 65.5 µM.

In the case of `COc1ccc(/C=C/C(=O)NCCc2c[nH]c3ccc(O)cc23)cc1`, the inhibition amounted to 21.3% in assay [1] and 6.5% in assay [2].

As for `COc1cc(/C=C/C(=O)NCCc2c[nH]c3ccc(O)cc23)ccc1O`, the inhibition was 2.7% in assay [1] and 18.8% in assay [2].

In the case of `O=C(/C=C/c1ccc(O)cc1)NCCc1c[nH]c2ccc(O)cc12`, the inhibition is 12.5% in assay [1] and 13.9% in assay [2].

For the compound `COc1ccc(/C=C/C(=O)NCCc2c[nH]c3ccc(O)cc23)cc1OC`, the inhibition is 29.9% in assay [1] and 18.2% in assay [2].

As for `CC(=O)Oc1ccccc1C(=O)O`, the inhibition in assay [2] is 19.3%.

Regarding `NCCc1c[nH]c2ccc(O)cc12` [SEROTONIN], the IC50 in assay [3] and in assay [4] was above 400 µM throughout.

As for `COc1ccc(/C=C/C(=O)NCCc2c[nH]c3ccc(O)cc23)cc1O`, the inhibition in assay [1] amounted to 7%; in assay [2] it was 8%.

In assay [3], `O=C(O)/C=C/c1ccc(O)c(O)c1` [CAFFEIC ACID] showed a half-maximal inhibitory concentration (IC50) above 400 µM.

As to `COc1cc(/C=C/C(=O)NCCc2c[nH]c3ccc(O)cc23)cc(OC)c1O` [N-SINAPOYL SEROTONIN], the inhibition in assay [1] was found to be 44.9%; in assay [2] it was 27.2%. The IC50 in assay [3] and in assay [4] was above 400 µM throughout.

For `COc1cc(/C=C/C(=O)O)cc(OC)c1O` [SINAPINATE], the IC50 turned out to be 39.2 µM in assay [3] and 28 µM in assay [4].

As for `O=C(/C=C/c1ccccc1)NCCc1c[nH]c2ccc(O)cc12`, the inhibition came to 18.2% in assay [1] and 8.2% in assay [2].
